Reference: ChEMBL document CHEMBL1201862, “PubChem BioAssay data set” (2004)
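Tested at 5 concentrations; 48 h exposure; 96-well plates; endpoints linearly interpolated, else capped at highest concentration. At the GI50, growth is halved.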 The source made the active and inactive calls. Rule as the data show it: active = GI50 up to about 1.1 µM and inactive = higher.

Assays:
Experiment in all cases: NCI-60 cell line screen, 48 h
SK-MEL-2 = system: SK-MEL-2
LOX IMVI = system: LOX IMVI
OVCAR-4 = system: OVCAR-4
A498 = system: A498
HOP-92 = system: HOP-92
HL-60 = system: HL-60
CAKI-1 = system: CAKI-1
HCC 2998 = system: HCC 2998
K562 = system: K562
U-251 = system: U-251
NCI-H460 = system: NCI-H460
SF-295 = system: SF-295
SN12C = system: SN12C
OVCAR-3 = system: OVCAR-3
SW-620 = system: SW-620
Hs-578T = system: Hs-578T
CCRF-CEM = system: CCRF-CEM
MDA-N = system: MDA-N
NCI/ADR-RES = system: NCI/ADR-RES
MDA-MB-435 = system: MDA-MB-435

| SMILES | GI50 (SK-MEL-2) | GI50 (LOX IMVI) | GI50 (OVCAR-4) | GI50 (A498) | GI50 (HOP-92) | GI50 (HL-60) | GI50 (CAKI-1) | GI50 (HCC 2998) | GI50 (K562) | GI50 (U-251) | GI50 (NCI-H460) | GI50 (SF-295) | GI50 (SN12C) | GI50 (OVCAR-3) | GI50 (SW-620) | GI50 (Hs-578T) | GI50 (CCRF-CEM) | GI50 (MDA-N) | GI50 (NCI/ADR-RES) | GI50 (MDA-MB-435) |
| --- | --- | --- | --- | --- | --- | --- | --- | --- | --- | --- | --- | --- | --- | --- | --- | --- | --- | --- | --- | --- |
| CCCCCCCCCCCCCCC(O)C[N+](C)(CCO)CCO (stereo unspecified) | 7.31 µM (inactive) | 1.48 µM (inactive) | 3.73 µM (inactive) | 4.99 µM (inactive) | 0.885 µM (active) | 0.585 µM (active) | 1.32 µM (inactive) | 1.73 µM (inactive) | 4.24 µM (inactive) | 1.53 µM (inactive) | 2.56 µM (inactive) | 2.25 µM (inactive) | 4.7 µM (inactive) | 3.13 µM (inactive) | 6.22 µM (inactive) | 2.17 µM (inactive) | 1.57 µM (inactive) | 5.86 µM (inactive) | 20.3 µM (inactive) | 6.12 µM (inactive) |
| COCN1C(N)=C(C(=O)OC(C)(C)C)C2=CC(=O)C=CC21C (stereo unspecified) | 17.3 µM (inactive) | 13.6 µM (inactive) | 13.6 µM (inactive) | 20.1 µM (inactive) | 5.14 µM (inactive) | 14.4 µM (inactive) | 15.2 µM (inactive) | 22.6 µM (inactive) | 4.92 µM (inactive) | 17 µM (inactive) | 18.4 µM (inactive) | 43.6 µM (inactive) | 25.8 µM (inactive) | – | 4.99 µM (inactive) | 15.2 µM (inactive) | 3.66 µM (inactive) | 16.1 µM (inactive) | 25.2 µM (inactive) | 13.2 µM (inactive) |
| CC(C)N(C(C)C)S(=O)(=O)C[C@]12CC[C@H](CC13OCC(CS(=O)(=O)c1ccccc1)O3)C2(C)C (stereo partly specified) | 52.5 µM (inactive) | 64.6 µM (inactive) | 40.8 µM (inactive) | 56.6 µM (inactive) | > 24.3 µM (inactive) | 13 µM (inactive) | 81.3 µM (inactive) | 54.5 µM (inactive) | 24.5 µM (inactive) | 52 µM (inactive) | 39.2 µM (inactive) | 28.4 µM (inactive) | 47.8 µM (inactive) | 31.3 µM (inactive) | 45 µM (inactive) | 94.4 µM (inactive) | 32.1 µM (inactive) | 51.4 µM (inactive) | 41.9 µM (inactive) | 47.1 µM (inactive) |
| Fc1ccc2c(c1)nc1n2C(c2c(Cl)cccc2Cl)SC1 (stereo unspecified) | 15 µM (inactive) | 15 µM (inactive) | 15 µM (inactive) | 20.9 µM (inactive) | 6.87 µM (inactive) | 12.3 µM (inactive) | 12.3 µM (inactive) | 15.7 µM (inactive) | – | 13.1 µM (inactive) | 8.17 µM (inactive) | 13.7 µM (inactive) | 17.3 µM (inactive) | 12.9 µM (inactive) | 13.2 µM (inactive) | 18.3 µM (inactive) | – | 12.1 µM (inactive) | 13.4 µM (inactive) | 11.4 µM (inactive) |
| O=C1OC(c2ccccc2)=N/C1=C\c1ccc(Cl)cc1 | > 100 µM (inactive) | > 100 µM (inactive) | > 100 µM (inactive) | > 100 µM (inactive) | > 100 µM (inactive) | > 100 µM (inactive) | > 100 µM (inactive) | > 100 µM (inactive) | > 100 µM (inactive) | > 100 µM (inactive) | > 100 µM (inactive) | > 100 µM (inactive) | > 100 µM (inactive) | > 100 µM (inactive) | > 100 µM (inactive) | > 100 µM (inactive) | 61.5 µM (inactive) | > 100 µM (inactive) | 66.2 µM (inactive) | > 100 µM (inactive) |
| O=C1CSC(c2ccccc2O)N1c1nc2cc3sc(N4C(=O)CSC4c4ccccc4O)nc3cc2s1 (stereo unspecified) | > 100 µM (inactive) | 24 µM (inactive) | 44.1 µM (inactive) | > 42.9 µM (inactive) | > 42.5 µM (inactive) | 31.6 µM (inactive) | 37.4 µM (inactive) | > 100 µM (inactive) | 64.3 µM (inactive) | 36.3 µM (inactive) | 2.3 µM (inactive) | > 100 µM (inactive) | > 40.5 µM (inactive) | > 100 µM (inactive) | 22.4 µM (inactive) | > 58.9 µM (inactive) | 3.93 µM (inactive) | 34.8 µM (inactive) | 8.47 µM (inactive) | 34.3 µM (inactive) |
| COc1ccccc1C1=C2C(=O)N(C)C(c3ccccc3OC)=C2C(=O)N1C | – | > 100 µM (inactive) | 37.2 µM (inactive) | 63 µM (inactive) | 30.3 µM (inactive) | > 100 µM (inactive) | > 100 µM (inactive) | > 100 µM (inactive) | > 100 µM (inactive) | 37.9 µM (inactive) | 84.1 µM (inactive) | 51.4 µM (inactive) | > 100 µM (inactive) | 33.5 µM (inactive) | > 100 µM (inactive) | 43.8 µM (inactive) | > 100 µM (inactive) | > 100 µM (inactive) | 45.7 µM (inactive) | > 100 µM (inactive) |
